Experimental data: patent US20240390340A1 (INCYTE CORPORATION, priority 2023, published 2024)
Read-outs that look alike come from different tables or passages of the source.

Tests used:
Caco-2 cells = assay: Caco2 assay (Papp A-B); type: in vitro ADME; settings: test compound 50 μM, 120 min, 37° C.
Outline: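 Caco-2 monolayers grown 22–25 days on Transwells (TEER 300 Ω·cm^2) were dosed apically with 50 μM compound in HBSS; basolateral receiver held HBSS with 4% BSA. Incubation 120 min at 37° C, 5% CO2; donor and receiver samples quantified by LCMS and Papp A-B calculated from receiver-side cumulative flux slope.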

KRAS G12D = KRAS G12D (Homo sapiens, UniProt P01116, G12D); assay: GDP-GTP exchange assay (bodipy-GDP/GppNHp, SOS1), KRAS G12D; type: biochemical
KRAS G12V = KRAS G12V (Homo sapiens, UniProt P01116, G12V); assay: GDP-GTP exchange assay (bodipy-GDP/GppNHp, SOS1), KRAS G12V; type: biochemical
[1] = Table H, column G12D, for compounds isolated as several atropisomers/diastereoisomers the value for the most potent isomer is quoted, read-out: KRAS G12D exchange assay IC50
[2] = Table H, column G12V, for compounds isolated as several atropisomers/diastereoisomers the value for the most potent isomer is quoted, read-out: KRAS G12V exchange assay IC50

Chain of KRAS G12V (P01116 1-188 isoform P01116-2 G12V): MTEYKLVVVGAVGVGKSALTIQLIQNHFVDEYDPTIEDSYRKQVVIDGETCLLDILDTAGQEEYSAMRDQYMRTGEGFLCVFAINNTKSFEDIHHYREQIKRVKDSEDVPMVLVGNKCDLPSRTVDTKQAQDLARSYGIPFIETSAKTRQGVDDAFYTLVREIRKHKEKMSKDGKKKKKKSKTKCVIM
Chain of KRAS G12D (P01116 1-188 isoform P01116-2 G12D): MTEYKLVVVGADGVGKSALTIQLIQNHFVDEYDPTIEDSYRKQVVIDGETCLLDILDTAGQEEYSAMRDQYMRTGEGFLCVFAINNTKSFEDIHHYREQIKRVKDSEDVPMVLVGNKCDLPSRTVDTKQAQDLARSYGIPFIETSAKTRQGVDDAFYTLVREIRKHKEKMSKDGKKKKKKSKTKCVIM

Row | Caco-2 (Caco-2 cells) | IC50 (KRAS G12D; [1]) [nM] | IC50 (KRAS G12V; [2]) [nM] | IC50 (KRAS G12D; bodipy-loaded KRAS G12D 2.5 nM, 4 h pre-incubation, value for the most potent isomer quoted for certain compounds, read-out: G12D (KRAS G12D exchange assay IC50)) [nM] | IC50 (KRAS G12V; KRAS G12V mutant, value for the most potent isomer quoted for certain compounds, read-out: G12V (KRAS G12V exchange assay IC50)) [nM] | Structure (SMILES)
1 | +++ (a Caco-2 value of >1) | ≤ 100 | ≤ 100 |  |  | Cc1nc2c(F)c(-c3cccc(Cl)c3Cl)c(CCC#N)cc2c2c1cc([C@H]1C[C@H](n3cc(C(C)(C)C)nn3)CN1C(=O)C1CC1)n2[C@H]1[C@H]2CN[C@@H]1C2 [Example 4, 3-(1-((1R,4R,5S)-2-Azabicyclo[2.1.1]hexan-5-yl)-2-((2R,4S)-4-(4-(tert-butyl)-1H-1,2,3-triazol-1-yl)-1-(cyclopropanecarbonyl)pyrrolidin-2-yl)-7-(2,3-dichlorophenyl)-6-fluoro-4-methyl-1H-pyrrolo[3,2-c]quinolin-8-yl)propanenitrile]
2 | + (a Caco-2 value of ≤0.5) | ≤ 100 | ≤ 100 |  |  | Cc1nc2c(F)c(-c3cccc(Cl)c3Cl)c(CCC#N)cc2c2c1cc([C@H]1C[C@H](Oc3ccnc(OC(F)F)c3)CN1C(=O)C1CC1)n2[C@H]1[C@H]2CN[C@@H]1C2 [Example 40, 3-(1-((1R,4R,5S)-2-Azabicyclo[2.1.1]hexan-5-yl)-2-((2R,4S)-1-(cyclopropanecarbonyl)-4-((2-(difluoromethoxy)pyridin-4-yl)oxy)pyrrolidin-2-yl)-7-(2,3-dichlorophenyl)-6-fluoro-4-methyl-1H-pyrrolo[3,2-c]quinolin-8-yl)propanenitrile]
3 | ++ (a Caco-2 value of >0.5 but ≤1) | ≤ 100 | ≤ 100 |  |  | COc1ncccc1CO[C@H]1C[C@H](c2cc3c(C)nc4c(F)c(-c5cccc(Cl)c5Cl)c(CCC#N)cc4c3n2[C@H]2[C@H]3CN[C@@H]2C3)N(C(=O)C2CC2)C1 [Example 27]
4 | + (a Caco-2 value of ≤0.5) | ≤ 100 | ≤ 100 |  |  | Cc1nc2c(F)c(-c3cccc(Cl)c3Cl)c(CCC#N)cc2c2c1cc([C@H]1C[C@H](n3cc(C4(C(F)F)CC4)nn3)CN1C(=O)C1CC1)n2[C@H]1[C@H]2CN[C@@H]1C2 [Example 67, 3-(1-((1R,4R,5S)-2-Azabicyclo[2.1.1]hexan-5-yl)-2-((2R,4S)-1-(cyclopropanecarbonyl)-4-(4-(1-(difluoromethyl)cyclopropyl)-1H-1,2,3-triazol-1-yl)pyrrolidin-2-yl)-7-(2,3-dichlorophenyl)-6-fluoro-4-methyl-1H-pyrrolo[3,2-c]quinolin-8-yl)propanenitrile]
5 | + (a Caco-2 value of ≤0.5) | ≤ 100 | ≤ 100 |  |  | Cc1nc2c(F)c(-c3cccc(Cl)c3Cl)c(CCC#N)cc2c2c1cc([C@H]1C[C@H](OC3CCC(C#N)C3)CN1C(=O)C1CC1)n2[C@H]1[C@H]2CN[C@@H]1C2 (stereo partly drawn) [Example 24]
6 | ++ (a Caco-2 value of >0.5 but ≤1) | ≤ 100 | ≤ 100 |  |  | Cc1nc2c(F)c(-c3cccc(Cl)c3Cl)c(CCC#N)cc2c2c1cc([C@H]1C[C@H](n3nccn3)CN1C(=O)C1CC1)n2[C@H]1[C@H]2CN[C@@H]1C2 [Example 74, 3-(1-((1R,4R,5S)-2-Azabicyclo[2.1.1]hexan-5-yl)-2-((2R,4S)-1-(cyclopropanecarbonyl)-4-(2H-1,2,3-triazol-2-yl)pyrrolidin-2-yl)-7-(2,3-dichlorophenyl)-6-fluoro-4-methyl-1H-pyrrolo[3,2-c]quinolin-8-yl)propanenitrile]
7 | + (a Caco-2 value of ≤0.5) | ≤ 100 | ≤ 100 |  |  | Cc1nc2c(F)c(-c3cccc(Cl)c3Cl)c(CCC#N)cc2c2c1cc([C@H]1C[C@H](n3cc(C4CCCCC4)nn3)CN1C(=O)C1CC1)n2[C@H]1[C@H]2CN[C@@H]1C2 [Example 69, 3-(1-((1R,4R,5S)-2-Azabicyclo[2.1.1]hexan-5-yl)-2-((2R,4S)-4-(4-cyclohexyl-1H-1,2,3-triazol-1-yl)-1-(cyclopropanecarbonyl)pyrrolidin-2-yl)-7-(2,3-dichlorophenyl)-6-fluoro-4-methyl-1H-pyrrolo[3,2-c]quinolin-8-yl)propanenitrile]
8 | ++ (a Caco-2 value of >0.5 but ≤1) | ≤ 100 | ≤ 100 |  |  | Cc1nc2c(F)c(-c3cccc(Cl)c3Cl)c(CCC#N)cc2c2c1cc([C@H]1C[C@H](Oc3cccnc3F)CN1C(=O)C1CC1)n2[C@H]1[C@H]2CN[C@@H]1C2 [Example 39, 3-(1-((1R,4R,5S)-2-Azabicyclo[2.1.1]hexan-5-yl)-2-((2R,4S)-1-(cyclopropanecarbonyl)-4-((2-fluoropyridin-3-yl)oxy)pyrrolidin-2-yl)-7-(2,3-dichlorophenyl)-6-fluoro-4-methyl-1H-pyrrolo[3,2-c]quinolin-8-yl)propanenitrile]
9 | +++ (a Caco-2 value of >1) |  |  | ≤ 100 | ≤ 100 | Cc1nc2c(F)c(-c3cccc(Cl)c3Cl)c(CCC#N)cc2c2c1cc([C@H]1C[C@](C)(OCc3ccccc3)CN1C(=O)C1CC1)n2[C@H]1[C@H]2CN[C@@H]1C2 [Example 81, 3-(2-((2R,4S)-4-(Benzyloxy)-1-(cyclopropanecarbonyl)-4-methylpyrrolidin-2-yl)-1-((1R,4R,5S)-2-azabicyclo[2.1.1]hexan-5-yl)-7-(2,3-dichlorophenyl)-6-fluoro-4-methyl-1H-pyrrolo[3,2-c]quinolin-8-yl)propanenitrile]
10 | + (a Caco-2 value of ≤0.5) | ≤ 100 | ≤ 100 |  |  | COc1nccc(O[C@H]2C[C@H](c3cc4c(C)nc5c(F)c(-c6cccc(Cl)c6Cl)c(CCC#N)cc5c4n3[C@H]3[C@H]4CN[C@@H]3C4)N(C(=O)C3CC3)C2)n1 [Example 42, 3-(1-((1R,4R,5S)-2-Azabicyclo[2.1.1]hexan-5-yl)-2-((2R,4S)-1-(cyclopropanecarbonyl)-4-((2-methoxypyrimidin-4-yl)oxy)pyrrolidin-2-yl)-7-(2,3-dichlorophenyl)-6-fluoro-4-methyl-1H-pyrrolo[3,2-c]quinolin-8-yl)propanenitrile]
11 | ++ (a Caco-2 value of >0.5 but ≤1) | ≤ 100 | ≤ 100 |  |  | COc1nccc(O[C@H]2C[C@H](c3cc4c([C@@H](C)O)nc5c(F)c(-c6cccc(Cl)c6Cl)c(CCC#N)cc5c4n3[C@H]3[C@H]4CN[C@@H]3C4)N(C(=O)C3CC3)C2)c1F [Example 53, 3-(1-((1R,4R,5S)-2-Azabicyclo[2.1.1]hexan-5-yl)-2-((2R,4S)-1-(cyclopropanecarbonyl)-4-((3-fluoro-2-methoxypyridin-4-yl)oxy)pyrrolidin-2-yl)-7-(2,3-dichlorophenyl)-6-fluoro-4-((R)-1-hydroxyethyl)-1H-pyrrolo[3,2-c]quinolin-8-yl)propanenitrile]
12 | + (a Caco-2 value of ≤0.5) | ≤ 100 | ≤ 100 |  |  | Cc1nc2c(F)c(-c3cccc(Cl)c3Cl)c(CCC#N)cc2c2c1cc([C@H]1C[C@H](Oc3cccc(N4CC(F)C4)n3)CN1C(=O)C1CC1)n2[C@H]1[C@H]2CN[C@@H]1C2 [Example 65, 3-(1-((1R,4R,5S)-2-Azabicyclo[2.1.1]hexan-5-yl)-2-((2R,4S)-1-(cyclopropanecarbonyl)-4-((6-(3-fluoroazetidin-1-yl)pyridin-2-yl)oxy)pyrrolidin-2-yl)-7-(2,3-dichlorophenyl)-6-fluoro-4-methyl-1H-pyrrolo[3,2-c]quinolin-8-yl)propanenitrile]
13 | ++ (a Caco-2 value of >0.5 but ≤1) | ≤ 100 | ≤ 100 |  |  | Cc1cc(CO[C@H]2C[C@H](c3cc4c(C)nc5c(F)c(-c6cccc(Cl)c6Cl)c(CCC#N)cc5c4n3[C@H]3[C@H]4CN[C@@H]3C4)N(C(=O)C3CC3)C2)no1 [Example 7]
14 | + (a Caco-2 value of ≤0.5) | ≤ 100 | ≤ 100 |  |  | Cc1nc2c(F)c(-c3cccc(Cl)c3Cl)c(CCC#N)cc2c2c1cc([C@H]1C[C@H](OCc3ccccc3C(F)F)CN1C(=O)C1CC1)n2[C@H]1[C@H]2CN[C@@H]1C2 [Example 18]
15 | + (a Caco-2 value of ≤0.5) | ≤ 100 | ≤ 100 |  |  | CC(O)c1nc2c(F)c(-c3cccc(Cl)c3Cl)c(CCC#N)cc2c2c1cc([C@H]1C[C@H](OCc3c(F)cccc3F)CN1C(=O)C1CC1)n2[C@H]1[C@H]2CN[C@@H]1C2 (stereo partly drawn) [Example 34]
16 | ++ (a Caco-2 value of >0.5 but ≤1) | ≤ 100 | ≤ 100 |  |  | Cc1nc2c(F)c(-c3cccc(Cl)c3Cl)c(CCC#N)cc2c2c1cc([C@H]1C[C@H](Oc3ccc(N(C)C)nc3)CN1C(=O)C1CC1)n2[C@H]1[C@H]2CN[C@@H]1C2 [Example 38, 3-(1-((1R,4R,5S)-2-Azabicyclo[2.1.1]hexan-5-yl)-2-((2R,4S)-1-(cyclopropanecarbonyl)-4-((6-(dimethylamino)pyridin-3-yl)oxy)pyrrolidin-2-yl)-7-(2,3-dichlorophenyl)-6-fluoro-4-methyl-1H-pyrrolo[3,2-c]quinolin-8-yl)propanenitrile]
17 | + (a Caco-2 value of ≤0.5) | ≤ 100 | ≤ 100 |  |  | Cc1nc2c(F)c(-c3cccc(Cl)c3Cl)c(CCC#N)cc2c2c1cc([C@H]1C[C@H](n3cc(C45CC(C4)C5)nn3)CN1C(=O)C1CC1)n2[C@H]1[C@H]2CN[C@@H]1C2 [Example 68, 3-(2-((2R,4S)-4-(4-(Bicyclo[1.1.1]pentan-1-yl)-1H-1,2,3-triazol-1-yl)-1-(cyclopropanecarbonyl)pyrrolidin-2-yl)-1-((1R,4R,5S)-2-azabicyclo[2.1.1]hexan-5-yl)-7-(2,3-dichlorophenyl)-6-fluoro-4-methyl-1H-pyrrolo[3,2-c]quinolin-8-yl)propanenitrile]
18 | + (a Caco-2 value of ≤0.5) | ≤ 100 | ≤ 100 |  |  | Cc1nc2c(F)c(-c3cccc(Cl)c3Cl)c(CCC#N)cc2c2c1cc([C@H]1C[C@H](OCc3cnsn3)CN1C(=O)C1CC1)n2[C@H]1[C@H]2CN[C@@H]1C2 [Example 13]
